According to US9822130B2, “Triazolo-pyrazinyl derivatives useful as soluble guanylate cyclase activators” (Merck Sharp & Dohme Corp., priority 2014, dated 2017):

target: T1, sGC α1/β1 heterodimer stably expressed in CHO-K1 cell line (CHO-K1/sGC) (Homo sapiens, UniProt Q02108+Q02153); experiment: Cell-based sGC Functional Assay (CASA Assay), cGMP generation; conditions: CHO-K1/sGC cells, 1 hr at 37° C., cGMP by HTRF, 4P fit; presence or absence of 1 μM DETA-NO not given; read-out: IP (nM) (inflection point)
T1 construct: expressed in transfected cells
T1 sequence (Q02108 1-690): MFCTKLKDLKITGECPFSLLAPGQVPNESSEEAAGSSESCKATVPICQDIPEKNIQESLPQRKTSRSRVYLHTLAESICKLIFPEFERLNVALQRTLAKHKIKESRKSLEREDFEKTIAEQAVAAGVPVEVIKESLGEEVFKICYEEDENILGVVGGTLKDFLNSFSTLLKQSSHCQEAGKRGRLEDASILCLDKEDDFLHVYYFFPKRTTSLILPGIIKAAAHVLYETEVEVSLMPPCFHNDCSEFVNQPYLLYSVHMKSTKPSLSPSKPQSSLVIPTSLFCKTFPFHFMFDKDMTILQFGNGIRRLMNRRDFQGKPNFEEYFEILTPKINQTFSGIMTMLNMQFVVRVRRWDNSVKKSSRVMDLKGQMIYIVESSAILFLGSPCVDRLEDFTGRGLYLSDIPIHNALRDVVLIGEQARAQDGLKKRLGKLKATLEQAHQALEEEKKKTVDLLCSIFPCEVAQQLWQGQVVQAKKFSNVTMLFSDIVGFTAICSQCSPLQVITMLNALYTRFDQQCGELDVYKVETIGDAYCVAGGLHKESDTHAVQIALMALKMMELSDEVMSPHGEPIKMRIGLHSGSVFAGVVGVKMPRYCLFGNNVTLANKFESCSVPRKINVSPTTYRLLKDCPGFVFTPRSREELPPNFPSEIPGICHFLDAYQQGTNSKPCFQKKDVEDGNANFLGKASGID
T1 sequence (Q02153 1-619): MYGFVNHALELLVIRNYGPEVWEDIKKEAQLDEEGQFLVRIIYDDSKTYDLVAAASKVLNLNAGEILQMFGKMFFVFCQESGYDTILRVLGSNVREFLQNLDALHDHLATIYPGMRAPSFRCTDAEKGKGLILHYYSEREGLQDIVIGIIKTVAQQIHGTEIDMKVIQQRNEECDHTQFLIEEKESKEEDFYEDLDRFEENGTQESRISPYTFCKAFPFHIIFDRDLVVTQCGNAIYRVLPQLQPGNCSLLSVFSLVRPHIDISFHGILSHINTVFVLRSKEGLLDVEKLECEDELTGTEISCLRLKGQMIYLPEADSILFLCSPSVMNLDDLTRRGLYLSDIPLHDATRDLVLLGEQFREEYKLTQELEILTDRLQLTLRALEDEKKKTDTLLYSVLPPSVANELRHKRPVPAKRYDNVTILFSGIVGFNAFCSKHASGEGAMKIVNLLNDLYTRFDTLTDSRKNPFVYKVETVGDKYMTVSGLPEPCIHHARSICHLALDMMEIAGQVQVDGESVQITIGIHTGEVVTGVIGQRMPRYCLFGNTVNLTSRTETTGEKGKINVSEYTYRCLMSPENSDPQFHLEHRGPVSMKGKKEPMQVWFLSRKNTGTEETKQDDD
In short: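 Readout is HTRF cGMP in lysates, normalised to the maximal response of reference sGC activator Compound A (100%), with a 4P fit giving IP and fold induction. Cells were CHO-K1/sGC (human α1/β1) in EBSS buffer with IBMX, incubated 1 hr at 37° C with compound. Run with and without 1 μM DETA-NO; final DMSO 2.5%.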

SMILES | EC50
CCCCc1nc(-c2nc(O)c3c(n2)NC(=O)[C@@]3(C)c2ccc(F)cc2)cn2ncnc12 [Example 154A, (S)-2-(8-butyl-[1,2,4]triazolo[1,5-a]pyrazin-6-yl)-5-(4-fluorophenyl)-4-hydroxy-5-methyl-5,7-dihydro-6H-pyrrolo[2,3-d]pyrimidin-6-one] | 27.2 nM
CCCCc1nc(-c2nc(O)c3c(n2)NC(=O)C3(C)c2ccc(F)cn2)cn2ncnc12 (centres unmarked) [Example 155B, 2-(8-butyl-[1,2,4]triazolo[1,5-a]pyrazin-6-yl)-5-(5-fluoropyridin-2-yl)-4-hydroxy-5-methyl-5H-pyrrolo[2,3-d] pyrimidin-6(7H)-one] | 163 nM
CCCCc1nc(-c2nc(O)c3c(n2)NC(=O)C3(C)c2ccc(Cl)c(F)c2)cn2ncnc12 (centres unmarked) [Example 156B, 2-(8-butyl-[1,2,4]triazolo[1,5-a]pyrazin-6-yl)-5-(4-chloro-3-fluorophenyl)-4-hydroxy-5-methyl-5H-pyrrolo[2,3-d] pyrimidin-6(7H)-one] | 23.3 nM
CCCCc1nc(-c2nc(O)c3c(n2)NC(=O)C3(C)c2ccc(Cl)cc2)cn2ncnc12 (centres unmarked) [Example 157A, 2-(8-butyl-[1,2,4]triazolo[1,5-a]pyrazin-6-yl)-5-(4-chlorophenyl)-4-hydroxy-5-methyl-5H-pyrrolo[2,3-d]pyrimidin-6(7H)-one] | 72.7 nM
CCCCc1nc(-c2nc(O)c3c(n2)NC(=O)C3(C)c2ccc(F)c(F)c2)cn2ncnc12 (centres unmarked) [Example 158B, 2-(8-butyl-[1,2,4]triazolo[1,5-a]pyrazin-6-yl)-5-(3,4-difluorophenyl)-4-hydroxy-5-methyl-5H-pyrrolo[2,3-d]pyrimidin-6(7H)-one] | 102 nM
CCCCc1nc(-c2nc(O)c3c(n2)NC(=O)C3(C)c2ccc(C(F)(F)F)cn2)cn2ncnc12 (centres unmarked) [Example 159B, 2-(8-butyl-[1,2,4]triazolo[1,5-a]pyrazin-6-yl)-4-hydroxy-5-methyl-5-(5-(trifluoromethyl)pyridin-2-yl)-5H-pyrrolo[2,3-d]pyrimidin-6(7H)-one] | 209 nM
CCCCc1nc(-c2nc(O)c3c(n2)NC(=O)C3(C)c2ccc(Cl)cn2)cn2ncnc12 (centres unmarked) [Example 160A, 2-(8-butyl-[1,2,4]triazolo[1,5-a]pyrazin-6-yl)-5-(5-chloropyridin-2-yl)-4-hydroxy-5-methyl-5H-pyrrolo[2,3-d]pyrimidin-6(7H)-one] | 50.2 nM
CCCCc1nc(-c2nc(O)c3c(n2)NC(=O)C3(C)c2ccc(C)cn2)cn2ncnc12 (centres unmarked) [Example 161B, 2-(8-butyl-[1,2,4]triazolo[1,5-a]pyrazin-6-yl)-4-hydroxy-5-methyl-5-(5-methylpyridin-2-yl)-5H-pyrrolo[2,3-d]pyrimidin-6(7H)-one] | 303 nM
C[C@@]1(c2ccc(F)cc2)C(=O)Nc2nc(-c3cn4ncnc4c(Cc4ccc(F)cc4)n3)nc(O)c21 [Example 162B, (S)-2-(8-(4-fluorobenzyl)-[1,2,4]triazolo[1,5-a]pyrazin-6-yl)-5-(4-fluorophenyl)-4-hydroxy-5-methyl-5H-pyrrolo[2,3-d]pyrimidin-6(7H)-one] | 96.7 nM
CC(C)Cc1nc(-c2nc(O)c3c(n2)NC(=O)[C@@]3(C)c2ccc(F)cc2)cn2ncnc12 [Example 163A, (S)-5-(4-fluorophenyl)-4-hydroxy-2-(8-isobutyl-[1,2,4]triazolo[1,5-a]pyrazin-6-yl)-5-methyl-5,7-dihydro-6H-pyrrolo[2,3-d]pyrimidin-6-one] | 1630 nM
CCCc1nc(-c2nc(O)c3c(n2)NC(=O)C3(C)c2ccc(Cl)cc2)cn2ncnc12 (centres unmarked) [Example 164A, 5-(4-chlorophenyl)-4-hydroxy-5-methyl-2-(8-propyl-[1,2,4]triazolo[1,5-a]pyrazin-6-yl)-5H-pyrrolo[2,3-d]pyrimidin-6(7H)-one] | 780 nM

Further lines, results first:

EC50 | SMILES
1520 nM | CCCc1nc(-c2nc(O)c3c(n2)NC(=O)[C@@]3(C)c2ccc(F)cc2)cn2ncnc12 [Example 165A, (S)-5-(4-fluorophenyl)-4-hydroxy-5-methyl-2-(8-propyl-[1,2,4]triazolo[1,5-a]pyrazin-6-yl)-5,7-dihydro-6H-pyrrolo[2,3-d]pyrimidin-6-one]
711 nM | CCCc1nc(-c2nc(O)c3c(n2)NC(=O)C3(C)c2ccc(Cl)c(F)c2)cn2ncnc12 (centres unmarked) [Example 166B, 5-(4-chloro-3-fluorophenyl)-4-hydroxy-5-methyl-2-(8-propyl-[1,2,4]triazolo[1,5-a]pyrazin-6-yl)-5H-pyrrolo[2,3-d]pyrimidin-6(7H)-one]
1090 nM | CCCc1nc(-c2nc(O)c3c(n2)NC(=O)C3(c2ccc(F)c(F)c2)C2CC2)cn2ncnc12 (centres unmarked) [Example 167A, 5-cyclopropyl-5-(3,4-difluorophenyl)-4-hydroxy-2-(8-propyl-[1,2,4]triazolo[1,5-a]pyrazin-6-yl)-5H-pyrrolo[2,3-d]pyrimidin-6(7H)-one]
1450 nM | CCCc1nc(-c2nc(O)c3c(n2)NC(=O)C3(C)c2ccc(Cl)cc2)cn2nc(C)nc12 (centres unmarked) [Example 168A, 5-(4-chlorophenyl)-4-hydroxy-5-methyl-2-(2-methyl-8-propyl-[1,2,4]triazolo[1,5-a]pyrazin-6-yl)-5H-pyrrolo[2,3-d]pyrimidin-6(7H)-one]
111 nM | CC1(c2ccc(F)c(F)c2)C(=O)Nc2nc(-c3cn4ncnc4c(CCC(F)(F)C(F)(F)F)n3)nc(O)c21 (centres unmarked) [Example 169B, 5-(3,4-Difluorophenyl)-4-hydroxy-5-methyl-2-(8-(3,3,4,4,4-pentafluorobutyl)-[1,2,4]triazolo[1,5-a]pyrazin-6-yl)-5,7-dihydro-6H-pyrrolo[2,3-d]pyrimidin-6-one]
9.5 nM | CC1(c2ccccc2F)C(=O)Nc2nc(-c3cn4ncnc4c(CCC(F)(F)C(F)(F)F)n3)nc(O)c21 (centres unmarked) [Example 170A, 5-(2-Fluorophenyl)-4-hydroxy-5-methyl-2-(8-(3,3,4,4,4-pentafluorobutyl)-[1,2,4]triazolo [1,5-a]pyrazin-6-yl)-5,7-dihydro-6H-pyrrolo [2,3-d]pyrimidin-6-one]
137 nM | CCCCc1nc(-c2nc(O)c3c(n2)NC(=O)C3(C)c2cccc(F)c2)cn2ncnc12 (centres unmarked) [Example 171A, 2-(8-Butyl-[1,2,4]triazolo[1,5-a]pyrazin-6-yl)-5-(3-fluorophenyl)-4-hydroxy-5-methyl-5,7-dihydro-6H-pyrrolo[2,3-d]pyrimidin-6-one]
212 nM | C[C@@]1(c2ccc(F)cc2)C(=O)Nc2nc(-c3cn4ncnc4c(CCC(F)(F)C(F)(F)F)n3)ncc21 [Example 172A, (S)-5-(4-fluorophenyl)-5-methyl-2-(8-(3,3,4,4,4-pentafluorobutyl)-[1,2,4]triazolo[1,5-a]pyrazin-6-yl)-5,7-dihydro-6H-pyrrolo[2,3-d]pyrimidin-6-one]
574 nM | CC(C)Cc1nc(-c2ncc3c(n2)NC(=O)[C@@]3(C)c2ccc(F)cc2)cn2ncnc12 [Example 173A, (S)-5-(4-fluorophenyl)-2-(8-isobutyl-[1,2,4]triazolo[1,5-a]pyrazin-6-yl)-5-methyl-5,7-dihydro-6H-pyrrolo[2,3-d]pyrimidin-6-one]
1350 nM | C[C@@]1(c2ccc(F)cc2)C(=O)Nc2nc(-c3cn4ncnc4c(CCC(F)(F)F)n3)ncc21 [Example 174A, (S)-5-(4-fluorophenyl)-5-methyl-2-(8-(3,3,3-trifluoropropyl)-[1,2,4]triazolo[1,5-a]pyrazin-6-yl)-5,7-dihydro-6H-pyrrolo[2,3-d]pyrimidin-6-one]
384 nM | CC1(c2ccc(Cl)cn2)C(=O)Nc2nc(-c3cn4ncnc4c(CCC(F)(F)C(F)(F)F)n3)ncc21 (centres unmarked) [Example 175A, 5-(5-chloropyridin-2-yl)-5-methyl-2-(8-(3,3,4,4,4-pentafluorobutyl)-[1,2,4]triazolo[1,5-a]pyrazin-6-yl)-5H-pyrrolo[2,3-d]pyrimidin-6(7H)-one]

same assay, conditions: CHO-K1/sGC cells, 1 hr at 37° C., cGMP by HTRF; presence or absence of 1 μM DETA-NO not given; read-out: % Act. (percent activation relative to maximum cGMP production of Compound A = 100%)

SMILES | Emax
CCCCc1nc(-c2nc(O)c3c(n2)NC(=O)[C@@]3(C)c2ccc(F)cc2)cn2ncnc12 [Example 154A, (S)-2-(8-butyl-[1,2,4]triazolo[1,5-a]pyrazin-6-yl)-5-(4-fluorophenyl)-4-hydroxy-5-methyl-5,7-dihydro-6H-pyrrolo[2,3-d]pyrimidin-6-one] | 100%
C[C@@]1(c2ccc(F)cc2)C(=O)Nc2nc(-c3cn4ncnc4c(Cc4ccc(F)cc4)n3)nc(O)c21 [Example 162B, (S)-2-(8-(4-fluorobenzyl)-[1,2,4]triazolo[1,5-a]pyrazin-6-yl)-5-(4-fluorophenyl)-4-hydroxy-5-methyl-5H-pyrrolo[2,3-d]pyrimidin-6(7H)-one] | 100%

Continued, values first:

Emax | SMILES
70% | CCCc1nc(-c2nc(O)c3c(n2)NC(=O)C3(c2ccc(F)c(F)c2)C2CC2)cn2ncnc12 (centres unmarked) [Example 167A, 5-cyclopropyl-5-(3,4-difluorophenyl)-4-hydroxy-2-(8-propyl-[1,2,4]triazolo[1,5-a]pyrazin-6-yl)-5H-pyrrolo[2,3-d]pyrimidin-6(7H)-one]
90% | CCCCc1nc(-c2nc(O)c3c(n2)NC(=O)C3(C)c2cccc(F)c2)cn2ncnc12 (centres unmarked) [Example 171A, 2-(8-Butyl-[1,2,4]triazolo[1,5-a]pyrazin-6-yl)-5-(3-fluorophenyl)-4-hydroxy-5-methyl-5,7-dihydro-6H-pyrrolo[2,3-d]pyrimidin-6-one]
